ChEMBL document CHEMBL3991601, “The target landscape of clinical kinase drugs” (Science, 2017)
Active and inactive are the calls of the source. Cut-off read from the data, not from the text of the source, for most assays here: actives have a measured Kd and inactives only a lower limit.

Columns and labels:
[1] = target: T1, Bone morphogenetic protein receptor type-2 (Homo sapiens, UniProt Q13873)
T1 sequence (Q13873 whole entry): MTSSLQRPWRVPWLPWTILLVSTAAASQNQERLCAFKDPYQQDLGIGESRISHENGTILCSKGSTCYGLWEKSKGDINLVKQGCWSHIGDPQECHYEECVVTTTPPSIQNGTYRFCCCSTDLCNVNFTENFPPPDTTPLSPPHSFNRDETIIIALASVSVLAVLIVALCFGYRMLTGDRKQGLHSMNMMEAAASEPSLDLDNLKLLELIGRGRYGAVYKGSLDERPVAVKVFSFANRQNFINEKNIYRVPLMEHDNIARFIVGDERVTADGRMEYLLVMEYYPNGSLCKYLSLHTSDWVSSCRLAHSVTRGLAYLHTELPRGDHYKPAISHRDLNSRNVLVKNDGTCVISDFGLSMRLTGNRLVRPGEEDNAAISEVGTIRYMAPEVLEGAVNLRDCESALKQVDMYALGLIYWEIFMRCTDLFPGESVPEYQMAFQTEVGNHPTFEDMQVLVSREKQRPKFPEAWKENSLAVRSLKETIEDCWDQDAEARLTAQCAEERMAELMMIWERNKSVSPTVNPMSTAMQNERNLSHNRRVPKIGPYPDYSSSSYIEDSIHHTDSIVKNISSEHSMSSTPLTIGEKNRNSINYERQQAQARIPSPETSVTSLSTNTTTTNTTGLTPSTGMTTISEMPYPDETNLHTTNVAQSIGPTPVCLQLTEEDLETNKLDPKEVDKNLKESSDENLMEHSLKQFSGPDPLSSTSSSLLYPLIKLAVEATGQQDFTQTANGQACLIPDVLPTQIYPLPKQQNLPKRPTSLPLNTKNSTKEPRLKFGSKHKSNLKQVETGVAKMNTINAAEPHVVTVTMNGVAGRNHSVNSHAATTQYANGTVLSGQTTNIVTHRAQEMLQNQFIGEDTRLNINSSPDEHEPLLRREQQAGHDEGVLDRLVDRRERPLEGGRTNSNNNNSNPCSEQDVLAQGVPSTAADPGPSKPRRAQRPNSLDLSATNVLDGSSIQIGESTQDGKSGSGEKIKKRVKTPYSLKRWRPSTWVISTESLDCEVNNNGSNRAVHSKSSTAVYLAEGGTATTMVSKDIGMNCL

[2] = target: Serine/threonine-protein kinase 16 (Homo sapiens, UniProt O75716)
[3] = target: T2, MAP/microtubule affinity-regulating kinase 4 (Homo sapiens, UniProt Q96L34)
T2 sequence (Q96L34 whole entry): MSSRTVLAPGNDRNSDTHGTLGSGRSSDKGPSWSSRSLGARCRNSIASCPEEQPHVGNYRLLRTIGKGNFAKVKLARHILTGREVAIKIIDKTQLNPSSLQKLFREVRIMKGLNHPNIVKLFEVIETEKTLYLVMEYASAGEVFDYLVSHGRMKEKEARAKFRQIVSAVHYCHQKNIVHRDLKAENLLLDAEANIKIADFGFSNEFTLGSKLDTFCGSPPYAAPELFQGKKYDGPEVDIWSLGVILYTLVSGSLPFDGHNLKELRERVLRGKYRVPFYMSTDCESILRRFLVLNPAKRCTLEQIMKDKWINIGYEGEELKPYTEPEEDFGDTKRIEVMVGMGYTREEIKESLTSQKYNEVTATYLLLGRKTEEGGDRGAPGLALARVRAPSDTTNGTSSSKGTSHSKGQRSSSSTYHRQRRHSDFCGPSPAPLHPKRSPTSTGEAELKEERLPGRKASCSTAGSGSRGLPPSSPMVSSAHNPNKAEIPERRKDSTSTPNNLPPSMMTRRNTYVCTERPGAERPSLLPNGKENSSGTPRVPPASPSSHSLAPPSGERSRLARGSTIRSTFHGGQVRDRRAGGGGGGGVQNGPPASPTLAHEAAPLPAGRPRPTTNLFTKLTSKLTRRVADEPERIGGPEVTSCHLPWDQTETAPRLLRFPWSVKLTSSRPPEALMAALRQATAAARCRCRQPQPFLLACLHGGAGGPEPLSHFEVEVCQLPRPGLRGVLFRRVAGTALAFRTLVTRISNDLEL

[4] = target: T3, Mitogen-activated protein kinase kinase kinase 6 (Homo sapiens, UniProt O95382)
T3 sequence (O95382 whole entry): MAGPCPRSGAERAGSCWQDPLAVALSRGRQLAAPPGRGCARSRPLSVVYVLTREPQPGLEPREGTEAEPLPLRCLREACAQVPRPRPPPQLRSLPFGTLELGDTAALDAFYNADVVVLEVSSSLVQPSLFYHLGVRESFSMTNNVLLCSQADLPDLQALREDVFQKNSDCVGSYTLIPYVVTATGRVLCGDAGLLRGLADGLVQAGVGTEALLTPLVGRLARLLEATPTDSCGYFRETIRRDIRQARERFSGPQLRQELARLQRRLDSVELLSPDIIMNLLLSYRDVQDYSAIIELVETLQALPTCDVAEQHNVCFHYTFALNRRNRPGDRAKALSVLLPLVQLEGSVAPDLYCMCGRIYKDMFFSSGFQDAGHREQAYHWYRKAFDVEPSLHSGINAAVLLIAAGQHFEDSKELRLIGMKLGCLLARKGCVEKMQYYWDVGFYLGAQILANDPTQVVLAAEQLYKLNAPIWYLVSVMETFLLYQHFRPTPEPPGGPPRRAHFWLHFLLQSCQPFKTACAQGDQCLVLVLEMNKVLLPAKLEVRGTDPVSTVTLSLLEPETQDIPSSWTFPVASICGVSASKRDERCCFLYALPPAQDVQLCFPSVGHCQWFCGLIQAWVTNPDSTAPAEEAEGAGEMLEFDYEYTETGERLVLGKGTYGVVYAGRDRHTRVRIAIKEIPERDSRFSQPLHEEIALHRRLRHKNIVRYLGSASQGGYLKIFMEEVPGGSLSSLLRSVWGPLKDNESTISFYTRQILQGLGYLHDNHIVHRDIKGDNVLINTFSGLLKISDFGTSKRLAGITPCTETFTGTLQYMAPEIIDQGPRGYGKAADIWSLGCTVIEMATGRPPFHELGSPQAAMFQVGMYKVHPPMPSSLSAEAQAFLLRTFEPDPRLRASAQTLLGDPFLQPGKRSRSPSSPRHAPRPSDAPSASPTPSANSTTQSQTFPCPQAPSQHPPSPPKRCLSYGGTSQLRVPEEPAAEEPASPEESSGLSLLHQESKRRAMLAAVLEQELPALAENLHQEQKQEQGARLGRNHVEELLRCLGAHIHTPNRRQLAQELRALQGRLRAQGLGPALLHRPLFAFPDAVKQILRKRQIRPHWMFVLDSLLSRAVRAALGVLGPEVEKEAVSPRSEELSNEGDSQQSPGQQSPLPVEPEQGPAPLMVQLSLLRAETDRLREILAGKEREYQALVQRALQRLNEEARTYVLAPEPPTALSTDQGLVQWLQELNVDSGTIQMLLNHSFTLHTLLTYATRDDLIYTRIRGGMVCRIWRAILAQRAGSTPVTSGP

Measured: Kd
Note: in the data inactive means no Kd found up to 30 µM.

Chain of Serine/threonine-protein kinase 16 (O75716 whole entry): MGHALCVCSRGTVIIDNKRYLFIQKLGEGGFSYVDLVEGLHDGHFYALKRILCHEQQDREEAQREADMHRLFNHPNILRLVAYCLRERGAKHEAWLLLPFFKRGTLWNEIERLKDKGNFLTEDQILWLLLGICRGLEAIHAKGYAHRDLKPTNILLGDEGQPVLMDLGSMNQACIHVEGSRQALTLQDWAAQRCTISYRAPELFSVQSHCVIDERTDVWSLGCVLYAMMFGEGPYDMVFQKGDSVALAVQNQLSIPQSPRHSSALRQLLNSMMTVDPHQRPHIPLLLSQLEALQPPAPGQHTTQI

O=C1NC(=O)[C@@H](c2cn3c4c(cccc24)CCC3)[C@@H]1c1c[nH]c2ccccc12 [TIVANTINIB]
inactive: [1] > 30 µM | [2] > 30 µM | [3] > 30 µM | [4] > 30 µM

C[C@@H](NC(=O)c1ncnc(N)c1Cl)c1ncc(C(=O)Nc2cc(C(F)(F)F)c(Cl)cn2)s1 [TOVORAFENIB]
inactive: [1] > 30 µM | [2] > 30 µM | [3] > 30 µM | [4] > 30 µM

Cc1cc(Nc2ncnc3ccc(NC4=NC(C)(C)CO4)cc23)ccc1Oc1ccn2ncnc2c1 [TUCATINIB]
inactive: [1] > 30 µM | [2] > 30 µM | [3] > 30 µM | [4] > 30 µM

CC(C)c1cc(CNc2nc(Nc3cc(C4CC4)[nH]n3)cc(N3CCN(C)CC3)n2)on1 [XL-228]
inactive: [1] > 30 µM | [2] > 30 µM | [3] > 30 µM | [4] > 30 µM

C[C@@H](N)c1ccc(C(=O)Nc2ccnc3[nH]ccc23)cc1 [Y-39983]
inactive: [1] > 30 µM | [2] > 30 µM | [3] > 30 µM | [4] > 30 µM
